Like-named read-outs stand apart in the source and are kept apart here.
Experiments:
[1] = one participant, 1.0-1.5 g tablet glycine, trip to East Coast USA, vs previous similar trips
Text: In the Figure, glycine (substantially pure tablet glycine containing only excipient and flavor) was taken at the time point marked with an arrow, wherein 1.0 g was taken on “June 20” and “June 21” and 1.5 g was taken on “June 22”-“June 26” and “June 29”.

[2] = 3 g before bed
Procedure: The test participant (body weight 45 kg) took, before going to bed, 3 g of glycine directly or upon addition to various foods (see, Table 3). The content (amount based on amino acid) of an amino acid other than glycine or a substance that can be hydrolyzed to give an amino acid other than glycine in these foods was generally 0 to 4 g. As compared to free of glycine intake, easiness of falling asleep and realization of deep sleep upon waking the next morning were recorded and summarized in Table 3.

[3] = beagles, oral 30 or 300 mg/kg
Procedure: Glycine (substantially pure glycine powder) was administered at 0, 30, or 300 mg/kg (0 mg/kg for control, CTRL) to beagles, and using the beagles, the R-R interval in electrocardiogram was measured by a telemetry system as an index of sympathetic activity. The measurement was conducted in the night after glycine administration. From the R-R interval after oral administration of glycine, moreover, sympathetic activity ((low frequency component LF)/(high frequency component HF)) and parasympathetic activity (high frequency component HF) were examined by power spectrum analysis.

[4] = Procedure: A double-blind crossover test aiming at confirmation of the effect of glycine on sleep was performed with 14 male adults (body weight 64-112.5 kg, average 81.2 kg) concerned about snoring and apnea condition during sleep. The test participants took glycine (granules containing citric acid and the like) in an amount equivalent to 3 g of glycine 1 hr before bedtime, and reduced maltose containing components other than glycine (citric acid and the like) and adjusted to an almost indistinguishable taste was used as a placebo.
In addition, the sleep condition of the night before was examined on waking using the sleep questionnaire.

[5] = rats, 2 g/kg, mean±standard error
Procedure: Glycine (substantially pure glycine powder) was administered to rats at 0 g/kg and 2 g/kg (0 g/kg for control) and using the rat, spontaneous electroencephalogram and cervix electromyogram were recorded through an electrode placed in the cortex hippocampus, and further, the amount of spontaneous motor activity was measured by an infrared ray monitor. The sleep-wake cycle was analyzed from the electroencephalogram, electromyogram and behavior record (kymogram), and percent occupation of light period and dark period and latency time were calculated.

[6] = 3 g 30 min before bedtime, sleep limited to about 75%, next daytime, mean ± standard error
Procedure: (§1) A single-blind crossover study aimed at confirmation of the effect of glycine on sleep was performed with 7 male adults (30s-40s, body weight 62-79 kg). The test participants took glycine (granule containing citric acid and the like) in an amount equivalent to 3 g of glycine 30 min before bedtime, and reduced maltose containing components other than glycine (citric acid and the like) and adjusted to an almost indistinguishable taste was used as a placebo. The sleep hours on the day of administration was limited to about 75% (5-6.5 hr) of comfortable sleep hours each test participant voluntarily notified, and a nap was prohibited until the end of the administration. For the test, glycine and placebo were each taken for 3 days with an interval of a 14-21 day non-intake period, totaling 4-5 weeks. Of the 3 days, the following investigation and measurement were performed at 10 o'clock, 14 o'clock and 18 o'clock of the next day of the first day of the intake.
In addition, the p value is a statistical value showing the probability when the difference between glycine and placebo was hypothesized to be null. Particularly, this value of 0.05 or below is considered to indicate a significant difference.

[7] = 3 g 30 min before bedtime, next daytime, mean ± standard error
Procedure: as §1
(2) To evaluate the cognitive and psychomotor function as a reflection of the quality of sleep, an operation efficiency test using a computer was performed. As a three kind discrimination response task, a task of responding to only one predetermined kind from randomly designed three kinds of graphics on the screen was given.

[8] = intake at 0.1 g per day; cited from earlier work
[9] = Voluntary comments on quality of sleep, 77 participants (Experimental Example 5); settings: 3 g glycine
[10] = addition to Japanese tea, 10 days of testing
[11] = addition to herb tea, 5 days of testing
[12] = addition to hot milk, 4 days of testing
[13] = addition to hot water or water, 14 days of testing
[14] = addition to yoghurt, 7 days of testing
[15] = 0-3 hr after administration, dark period
[16] = 0-3 hr after administration, light period
[17] = 4-6 hr after administration, dark period
[18] = 4-6 hr after administration, light period
[19] = voluntary comments of 77 participants

NCC(=O)O [glycine, Glycine]
arousal during sleep [1]: reduced or eliminated arousal during sleep
Improved easiness of falling asleep [2, 10]: 9 days
Improved realization of deep sleep [2, 10]: 10 days
Improved easiness of falling asleep [2, 11]: 5 days
Improved realization of deep sleep [2, 11]: 5 days
Improved easiness of falling asleep [2, 12]: 4 days
Improved realization of deep sleep [2, 12]: 4 days
Improved easiness of falling asleep [2, 13]: 14 days
Improved realization of deep sleep [2, 13]: 14 days
Improved easiness of falling asleep [2, 14]: 7 days
Improved realization of deep sleep [2, 14]: 7 days
Improved easiness of falling asleep ([2]; powder, 3 days of testing): 3 days
Improved realization of deep sleep ([2]; powder, 3 days of testing): 3 days
R-R interval in electrocardiogram ([3]; 1-4 hr after administration, compared to control): increased
parasympathetic activity (high frequency component HF) ([3]; power spectrum analysis of R-R interval): dominant
OSA sleep questionnaire point value, time of dozing off ([4]; participant average of 4 levels (0, 11, 19, 30 points), higher = shorter dozing, placebo 19.6): 24.9
OSA sleep questionnaire point value, depth of sleep ([4]; participant average of 4 levels (0, 11, 21, 32 points), higher = deeper, placebo 12.3): 16.7
Percent occupation, fast wave sleep stage [5, 15]: 3.2 ± 1.7%
Percent occupation, slow wave sleep stage [5, 15]: 29.2 ± 6.5%
Percent occupation, waking stage [5, 15]: 67.6 ± 7.9%
Percent occupation, fast wave sleep stage [5, 16]: 5.5 ± 1.6%
Percent occupation, slow wave sleep stage [5, 16]: 54.9 ± 4.9%
Percent occupation, waking stage [5, 16]: 39.6 ± 6.0%
Percent occupation, fast wave sleep stage [5, 17]: 3.0 ± 0.7%
Percent occupation, slow wave sleep stage [5, 17]: 31.5 ± 2.8%
Percent occupation, waking stage [5, 17]: 65.6 ± 3.4%
Percent occupation, fast wave sleep stage [5, 18]: 13.4 ± 2.1%
Percent occupation, slow wave sleep stage [5, 18]: 65.9 ± 2.0%
Percent occupation, waking stage [5, 18]: 20.7 ± 0.8%
Amount of spontaneous motor activity at 6 hr after administration ([5]; dark period): 19464 ± 2765 count
Latency time, fast wave sleep stage ([5]; dark period): 118.2 ± 28.3 min
Latency time, slow wave sleep stage ([5]; dark period): 78.6 ± 22.8 min
Amount of spontaneous motor activity at 6 hr after administration ([5]; light period): 2316 ± 295 count
Latency time, fast wave sleep stage ([5]; light period): 20.9 ± 3.4 min
Latency time, slow wave sleep stage ([5]; light period): 8.5 ± 1.2 min
lassitude (SAM lassitude check list total points) ([6]; placebo 9.0 ± 0.68, p value 0.025): 7.0 ± 0.74
sleepiness (distance from left end of 100 mm line) ([6]; placebo 50.7 ± 4.39, p value 0.042): 38.1 ± 4.47 mm
Response time ([7]; placebo 0.393 ± 0.025, p value 0.028): 0.366 ± 0.021 s
Lapse (number of response where reaction time was 500 msec or longer) ([7]; placebo 2.67 ± 3.06, p value 0.017): 1.19 ± 1.69 times
percentage of correct answer ([7]; placebo 95.6 ± 5.20, p value 0.043): 98.4 ± 1.16%
memory and attention [8]: increases memory and attention
participants commenting that no effect was found ([9]; out of 77 participants): 17 participants
participants commenting that the quality of sleep was improved ([9]; out of 77 participants): 58 participants
participants commenting that the quality was degraded ([9]; out of 77 participants): 2 participants
Awakening was fresh: Degrading effect [9, 19]: 1 person
Awakening was fresh: Enhancing effect on quality of sleep [9, 19]: 24 person
Deep sleep was realized: Degrading effect [9, 19]: 0 person
Deep sleep was realized: Enhancing effect on quality of sleep [9, 19]: 8 person
Did not wake up at midnight: Degrading effect [9, 19]: 1 person
Did not wake up at midnight: Enhancing effect on quality of sleep [9, 19]: 6 person
Fell asleep easily: Degrading effect [9, 19]: 0 person
Fell asleep easily: Enhancing effect on quality of sleep [9, 19]: 6 person
Had no dream: Degrading effect [9, 19]: 0 person
Had no dream: Enhancing effect on quality of sleep [9, 19]: 4 person
Sleep was deeper: Degrading effect [9, 19]: 0 person
Sleep was deeper: Enhancing effect on quality of sleep [9, 19]: 10 person
Slept well: Degrading effect [9, 19]: 0 person
Slept well: Enhancing effect on quality of sleep [9, 19]: 2 person
Snoring decreased: Degrading effect [9, 19]: 0 person
Snoring decreased: Enhancing effect on quality of sleep [9, 19]: 19 person
sleepiness during daytime reduced: Degrading effect [9, 19]: 0 person
sleepiness during daytime reduced: Enhancing effect on quality of sleep [9, 19]: 4 person
